Results as given in patent US10681908B2, “Molecules having pesticidal utility, and intermediates, compositions, and processes, related thereto” (Dow AgroSciences LLC, priority 2016, dated 2020).
Where two headings read alike, the source gives them in different places.

Columns and labels:
[1] = tested on: Beet Armyworm (Spodoptera exigua, LAPHEG); assay: Bioassay on Beet Armyworm (BAW), 128-well diet tray assay; type: in vivo; settings: for mortality at 50 µg/cm2: 168 h, 50 μg/cm^2 on artificial diet, second instar larvae, five to seven days, 25° C., read-out: BAW % Control (or Mortality) rating
Experimental: (§1) Example A: Bioassays on Beet Armyworm (Spodoptera Exigua, LAPHEG) (“BAW”), Corn Earworm (Helicoverpa zea, HELIZE) (“CEW”), and Cabbage Looper (Trichoplusia ni, TRIPNI) (“CL”)
(§2) Certain molecules disclosed in this document were tested against BAW, CEW, and CL using procedures described in the following examples. In the reporting of the results, the “BAW, CEW, & CL Rating Table” was used (See Table Section).
Bioassays on BAW were conducted using a 128-well diet tray assay. One to five second instar BAW larvae were placed in each well (3 mL) of the diet tray that had been previously filled with 1 mL of artificial diet to which 50 μg/cm^2 of the test molecule (dissolved in 50 μL of 90:10 acetone-water mixture) had been applied (to each of eight wells) and then allowed to dry. Trays were covered with a clear self-adhesive cover and held at 25° C., 14:10 light-dark for five to seven days. Percent mortality was recorded for the larvae in each well; activity in the eight wells was then averaged. The results are indicated in the table entitled “Table ABC: Biological Results” (See Table Section).
(§3) Bioassays on BAW and CL were conducted according to the procedures outlined in Example A: Bioassays on Beet Armyworm (“BAW”) and Cabbage Looper (“CL”) using the indicated concentrations.

[2] = tested on: Cabbage Looper (Trichoplusia ni, TRIPNI); assay: Bioassay on Cabbage Looper (CL), 128-well diet tray assay; type: in vivo; settings: for mortality at 50 µg/cm2: 168 h, 50 μg/cm^2 on artificial diet, second instar larvae, five to seven days, 25° C., read-out: CL % Control (or Mortality) rating
Experimental: as §1, §2
Bioassays on CL were conducted using a 128-well diet tray assay. One to five second instar CL larvae were placed in each well (3 mL) of the diet tray that had been previously filled with 1 mL of artificial diet to which 50 μg/cm^2 of the test molecule (dissolved in 50 μL of 90:10 acetone-water mixture) had been applied (to each of eight wells) and then allowed to dry. Trays were covered with a clear self-adhesive cover and held at 25° C., 14:10 light-dark for five to seven days. Percent mortality was recorded for the larvae in each well; activity in the eight wells was then averaged. The results are indicated in the table entitled “Table ABC: Biological Results” (See Table Section).
as §3

| Structure (SMILES) | mortality at 50 µg/cm2 [1] [%] | mortality at 50 µg/cm2 [2] [%] | other results |
| --- | --- | --- | --- |
| C[C@H](C[S+]([O-])CC(F)(F)F)NC(=O)c1ccc(/C(F)=C/C(c2cc(Cl)c(Cl)c(Cl)c2)C(F)(F)F)cc1Br (stereo partly drawn) [F9, 2-Bromo-4-((Z)-1,4,4,4-tetrafluoro-3-(3,4,5-trichlorophenyl)but-1-en-1-yl)-N-((2R)-1-((2,2,2-trifluoroethyl)sulfinyl)propan-2-yl)benzamide] | 50 to 100 | 50 to 100 |  |
| CSC(C)CNC(=O)c1ccc(/C(F)=C/C(c2cc(Cl)c(Cl)c(Cl)c2)C(F)(F)F)cc1C(F)(F)F (stereo not drawn) [F89, (Z)—N-(2-(Methylthio)propyl)-4-(1,4,4,4-tetrafluoro-3-(3,4,5-trichlorophenyl)but-1-en-1-yl)-2-(trifluoromethyl)benzamide] | 50 to 100 | 50 to 100 |  |
| C[C@H](CSCCC(F)(F)F)NC(=O)c1ccc(/C(F)=C/C(c2cc(Cl)c(Cl)c(Cl)c2)C(F)(F)F)cc1C(F)(F)F (stereo partly drawn) [F137, 4-((Z)-1,4,4,4-Tetrafluoro-3-(3,4,5-trichlorophenyl)but-1-en-1-yl)-2-(trifluoromethyl)-N—((R)-1-((3,3,3-trifluoropropyl)thio)propan-2-yl)benzamide] | 50 to 100 | 50 to 100 |  |
| C[C@H](CS(=O)(=O)CC(F)(F)F)NC(=O)c1ccc(/C(F)=C/C(c2cc(Cl)c(Cl)c(Br)c2)C(F)(F)F)cc1C(F)(F)F (stereo partly drawn) [F80, 4-((Z)-3-(3-Bromo-4,5-dichlorophenyl)-1,4,4,4-tetrafluorobut-1-en-1-yl)-N—((R)-1-((2,2,2-trifluoroethyl)sulfonyl)propan-2-yl)-2-(trifluoromethyl)benzamide] | 50 to 100 | 50 to 100 |  |
| O=C(NCC[S+]([O-])CC(F)(F)F)c1ccc(/C(F)=C/C(c2cc(Cl)c(Cl)c(Cl)c2)C(F)(F)F)cc1C(F)(F)F (stereo not drawn) [F50, (Z)-4-(1,4,4,4-tetrafluoro-3-(3,4,5-trichlorophenyl)but-1-en-1-yl)-N-(2-((2,2,2-trifluoroethyl)sulfinyl)ethyl)-2-(trifluoromethyl)benzamide] | 50 to 100 | 50 to 100 |  |
| C[C@H](CS(=O)(=O)CC(F)(F)F)NC(=O)c1ccc(/C(F)=C/C(c2cc(Cl)c(Cl)c(Cl)c2)C(F)(F)F)cc1Br (stereo partly drawn) [F8, 2-Bromo-4-((Z)-1,4,4,4-tetrafluoro-3-(3,4,5-trichlorophenyl)but-1-en-1-yl)-N—((R)-1-((2,2,2-trifluoroethyl)sulfonyl)propan-2-yl)benzamide] | 50 to 100 | 50 to 100 |  |
| C=Cc1cc(Cl)cc(C(/C=C(\F)c2ccc(C(=O)N[C@H](C)CS(=O)(=O)CC(F)(F)F)c(C(F)(F)F)c2)C(F)(F)F)c1 (stereo partly drawn) [F112, 4-((Z)-3-(3-Chloro-5-vinylphenyl)-1,4,4,4-tetrafluorobut-1-en-1-yl)-N—((R)-1-((2,2,2-trifluoroethyl)sulfonyl)propan-2-yl)-2-(trifluoromethyl)benzamide] | 50 to 100 | 50 to 100 |  |
| CCSC[C@@H](C)NC(=O)c1ccc(/C(F)=C/C(c2cc(Br)cc(Br)c2)C(F)(F)F)cc1C(F)(F)F (stereo partly drawn) [F40, 4-((Z)-3-(3,5-Dibromophenyl)-1,4,4,4-tetrafluorobut-1-en-1-yl)-N—((R)-1-(ethylthio)propan-2-yl)-2-(trifluoromethyl)benzamide] | 50 to 100 | 50 to 100 |  |
| C[C@H](CSCC#N)NC(=O)c1ccc(/C(F)=C/C(c2cc(Cl)c(Cl)c(Cl)c2)C(F)(F)F)cc1C(F)(F)F (stereo partly drawn) [F83, N—((R)-1-((Cyanomethyl)thio)propan-2-yl)-4-((Z)-1,4,4,4-tetrafluoro-3-(3,4,5-trichlorophenyl)but-1-en-1-yl)-2-(trifluoromethyl)benzamide] | 50 to 100 | 50 to 100 |  |
| C[C@H](CSCC(F)(F)F)NC(=O)c1ccc(/C(F)=C/C(c2cc(Cl)cc(Br)c2)C(F)(F)F)cc1C(F)(F)F (stereo partly drawn) [F64, 4-((Z)-3-(3-Bromo-5-chlorophenyl)-1,4,4,4-tetrafluorobut-1-en-1-yl)-N—((R)-1-((2,2,2-trifluoroethyl)thio)propan-2-yl)-2-(trifluoromethyl)benzamide] | 50 to 100 | 50 to 100 |  |
| C[C@H](CSCC(C)(F)F)NC(=O)c1ccc(/C(F)=C/C(c2cc(Cl)c(Cl)c(Cl)c2)C(F)(F)F)cc1C(F)(F)F (stereo partly drawn) [F113, N—((R)-1-((2,2-Difluoropropyl)thio)propan-2-yl)-4-((Z)-1,4,4,4-tetrafluoro-3-(3,4,5-trichlorophenyl)but-1-en-1-yl)-2-(trifluoromethyl)benzamide] | 50 to 100 | 50 to 100 |  |
| C[C@H](C[S+]([O-])CC(F)(F)F)NC(=O)c1ccc(/C(F)=C/C(c2cc(Cl)c(Cl)c(Cl)c2)C(F)(F)F)cc1Cl (stereo partly drawn) [F12, 2-Chloro-4-((Z)-1,4,4,4-tetrafluoro-3-(3,4,5-trichlorophenyl)but-1-en-1-yl)-N-((2R)-1-((2,2,2-trifluoroethyl)sulfinyl)propan-2-yl)benzamide] | 50 to 100 | 50 to 100 |  |
| C[C@H](CSCC(F)(F)F)NC(=O)c1ccc(/C(F)=C/C(c2cc(Cl)c(Cl)c(Cl)c2)C(F)(F)F)cc1Cl (stereo partly drawn) [F10, 2-Chloro-4-((Z)-1,4,4,4-tetrafluoro-3-(3,4,5-trichlorophenyl)but-1-en-1-yl)-N—((R)-1-((2,2,2-trifluoroethyl)thio)propan-2-yl)benzamide] | 50 to 100 | 50 to 100 | mortality at 0.05 µg/cm2 ([1]; 0.05 μg/cm^2, Table CD2 comparative data, read-out: Percent control (or mortality) BAW): 0%; mortality at 0.5 µg/cm2 ([1]; 0.5 μg/cm^2, Table CD2 comparative data, read-out: Percent control (or mortality) BAW): 100%; mortality at 5 µg/cm2 ([1]; 5 μg/cm^2, Table CD2 comparative data, read-out: Percent control (or mortality) BAW): 100%; mortality at 0.05 µg/cm2 ([2]; 0.05 μg/cm^2, Table CD2 comparative data, read-out: Percent control (or mortality) CL): 6%; mortality at 0.5 µg/cm2 ([2]; 0.5 μg/cm^2, Table CD2 comparative data, read-out: Percent control (or mortality) CL): 100%; mortality at 5 µg/cm2 ([2]; 5 μg/cm^2, Table CD2 comparative data, read-out: Percent control (or mortality) CL): 100% |
| C[C@H](CS(=O)(=O)CC(F)(F)F)NC(=O)c1ccc(/C(F)=C/C(c2cc(Cl)c(Cl)c(Cl)c2)C(C)(F)F)cc1C(F)(F)F (stereo partly drawn) [F16, 4-((Z)-1,4,4-Trifluoro-3-(3,4,5-trichlorophenyl)pent-1-en-1-yl)-N—((R)-1-((2,2,2-trifluoroethyl)sulfonyl)propan-2-yl)-2-(trifluoromethyl)benzamide] | 50 to 100 | 50 to 100 | mortality at 0.05 µg/cm2 ([1]; 0.05 μg/cm^2, read-out: BAW Percent control (or mortality)): 100%; mortality at 0.5 µg/cm2 ([1]; 0.5 μg/cm^2, read-out: BAW Percent control (or mortality)): 100%; mortality at 5 µg/cm2 ([1]; 5 μg/cm^2, read-out: BAW Percent control (or mortality)): 100%; mortality at 0.05 µg/cm2 ([2]; 0.05 μg/cm^2, read-out: CL Percent control (or mortality)): 100%; mortality at 0.5 µg/cm2 ([2]; 0.5 μg/cm^2, read-out: CL Percent control (or mortality)): 100%; mortality at 5 µg/cm2 ([2]; 5 μg/cm^2, read-out: CL Percent control (or mortality)): 100% |
| CC(CNC(=O)c1ccc(/C(F)=C/C(c2cc(Cl)c(Cl)c(Cl)c2)C(F)(F)F)cc1C(F)(F)F)S(C)(=O)=O (stereo not drawn) [F124, (Z)—N-(2-(methylsulfonyl)propyl)-4-(1,4,4,4-tetrafluoro-3-(3,4,5-trichlorophenyl)but-1-en-1-yl)-2-(trifluoromethyl)benzamide] | 50 to 100 | 50 to 100 |  |
| C[C@H](CS(=O)(=O)CCF)NC(=O)c1ccc(/C(F)=C/C(c2cc(Cl)c(Cl)c(Cl)c2)C(F)(F)F)cc1C(F)(F)F (stereo partly drawn) [F85, N—((R)-1-((2-Fluoroethyl)sulfonyl)propan-2-yl)-4-((Z)-1,4,4,4-tetrafluoro-3-(3,4,5-trichlorophenyl)but-1-en-1-yl)-2-(trifluoromethyl)benzamide] | 50 to 100 | 50 to 100 |  |
| C[C@H](CSCCF)NC(=O)c1ccc(/C(F)=C/C(c2cc(Cl)c(Cl)c(Cl)c2)C(F)(F)F)cc1C(F)(F)F (stereo partly drawn) [F84, N—((R)-1-((2-Fluoroethyl)thio)propan-2-yl)-4-((Z)-1,4,4,4-tetrafluoro-3-(3,4,5-trichlorophenyl)but-1-en-1-yl)-2-(trifluoromethyl)benzamide] | 50 to 100 | 50 to 100 |  |
| C[C@H](CS(=O)(=O)CC(F)(F)F)NC(=O)c1ccc(/C(F)=C/[C@@H](c2cc(Cl)c(Cl)c(Cl)c2)C(F)(F)F)cc1C(F)(F)F [F136, 4-((S,Z)-1,4,4,4-tetrafluoro-3-(3,4,5-trichlorophenyl)but-1-en-1-yl)-N—((R)-1-((2,2,2-trifluoroethyl)sulfonyl)propan-2-yl)-2-(trifluoromethyl)benzamide] | 50 to 100 | 50 to 100 |  |
